{"source": "paper PMC11050443", "about": "“Discovery of Strong 3-Nitro-2-Phenyl-2H-Chromene Analogues as Antitrypanosomal Agents and Inhibitors of Trypanosoma cruzi Glucokinase” (International Journal of Molecular Sciences, 2024)", "key": {"T. cruzi": {"test_system": "T. cruzi", "set-up": "method as in PMID 26778112", "conditions": "cited from earlier work"}, "TcGlcK": {"biological_target": "TcGlcK", "set-up": "method as in PMID 26778112", "conditions": "competitive inhibitor, previous study; cited from earlier work"}, "[1]": {"biological_target": "T1, TcGlcK (Trypanosoma cruzi glucokinase) (Trypanosoma cruzi, UniProt Q4E4E1)", "T1 construct": "made in house; host or cells: Escherichia coli BL21(DE3)", "T1 sequence (Q4E4E1 1-376)": "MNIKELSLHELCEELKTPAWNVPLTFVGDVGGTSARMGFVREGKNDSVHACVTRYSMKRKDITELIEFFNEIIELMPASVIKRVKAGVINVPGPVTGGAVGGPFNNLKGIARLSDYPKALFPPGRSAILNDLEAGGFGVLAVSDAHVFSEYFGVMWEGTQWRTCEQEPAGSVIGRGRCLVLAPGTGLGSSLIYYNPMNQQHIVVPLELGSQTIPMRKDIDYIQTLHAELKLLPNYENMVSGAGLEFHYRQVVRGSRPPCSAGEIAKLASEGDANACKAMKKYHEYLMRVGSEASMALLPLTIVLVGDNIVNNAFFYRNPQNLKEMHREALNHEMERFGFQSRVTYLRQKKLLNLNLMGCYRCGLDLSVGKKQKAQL", "assay": "TcGlcK primary screening assay (LmG6PDH-coupled, Dixon plots)", "assay_type": "biochemical", "conditions": "Dixon plots; 0.4, 0.6, 0.8 mM D-glucose; N = 1 unless marked, N = 3 for compounds 1, 4, 9, 11", "description": "A primary screening assay was carried out for TcGlcK with the 3-nitro-2-phenyl-2H-chromene analogues. The data was subsequently processed for respective Ki values in order to assess enzyme inhibition. […] The primary screening assay was performed with the substrate D-glucose in various concentrations of 0.4 mM, 0.6 mM, and 0.8 mM to produce Dixon plots with different slopes. Each of the 3-nitro-2-phenyl-2H-chromene analogues were originally prepared at a working concentration of 1.0 mM and were dissolved in 100% DMSO. The final assay concentrations of the analogue compounds (inhibitors) ranged from 0.0–10.0 μM. The analogue compounds were pre-incubated with the enzyme system a minimum of 10 min prior to the initiation of the assay. The enzymatic reaction was carried out at room temperature (22 °C; temperature optimum) using ATP to initiate the reaction, and termination was performed after 120 s (time optimum) by stopping the reaction with the addition of an EDTA (pH 8.0) solution, to a final concentration of 100 mM. TcGlcK enzyme activity was analyzed for the production of NADPH. Each completed reaction mixture was added into a black, round-bottom microplate and scanned by a VANTAstar-F multi-mode microplate reader (BMG LABTECH, Inc.; Cary, NC, USA). The instrument was set to fluorescence mode and the wavelengths (λex = 340 nm; λem = 485 nm) were set to observe the relative fluorescence units of NADPH [40]. The enzyme-inhibition kinetics Ki value determination and the mode of inhibition was determined using the Cornish–Bowden Dixon Plot analysis method."}, "[2]": {"test_system": "T. brucei brucei (427 strain) bloodstream form", "assay": "In vitro T. brucei biological assay (Alamar blue)", "assay_type": "cell-based, Trypanosoma brucei brucei", "conditions": "Trypanosoma brucei, 48 h, T. brucei brucei 427 strain bloodstream form growth inhibition; N = 3", "description": "The in vitro cell culture preparation of T. brucei brucei (427 strain) trypomastigote bloodstream form followed by treatment with inhibitors has recently been described by Ajayi and colleagues. The 3-nitro-2-phenyl-2H-chromene compounds (inhibitors) that were prepared as 10.0 mM stock solutions in 100% DMSO were thawed from −80 °C to room temperature. HMI-9 medium [Iscove’s modification of DMEM supplemented with 10% FBS, 10% serum plus (SAFC), 0.05 mM bathocuproinesulfonate, 1.5 mM L-cysteine, 1.0 mM hypoxanthine, 0.2 mM β-mercaptoethanol, 0.16 mM thymidine, and 1.0 mM pyruvate] was prepared. In a sterile, round-bottom, 96-well microplate, 100 μL of HMI-9 medium was added to each well. A volume of 2.0 μL of a given compound plus a volume of 98.0 μL of fresh media were both added to a well in the first row of the 96-well microplate; this was performed for each compound to be tested. Solutions were mixed with a micropipette followed by transfer of 100 μL to the next row and repeated. The compound solutions ranged from 0.0781–10.0 μM and this was accomplished by serial dilution using a 2-fold dilution. T. brucei parasites were centrifuged for 10 min at 900× g (without centrifuge breaks). The media was carefully discarded by aspiration and the parasites were resuspended in warm media. Parasites were counted in a Newbauer chamber. Afterwards, the parasites were diluted to 50,000 cells/mL (5000 cells/well) and 100 μL was added to each well of the 96-well microplate using a multichannel pipette. After 48 h, 20.0 μL of Alamar blue was added to each well and the plate was placed into an incubator for 4 h at 37 °C. Fluorescence readings were measured using a Victor Nivo multimode microplate reader (PerkinElmer, Inc.; Shelton, CT, USA) at λex = 530 nm and λem = 590 nm. All measurements were performed in triplicate and IC50 determinations for percent growth inhibition were carried out using GraphPad Prism 10.0. The detergent SDS was used as a positive control and its final solution concentration was 0.5%. Three control experiments were performed, as follows: (a) parasites alone, (b) parasites and 0.5% SDS, and (c) the medium alone."}, "NIH-3T3 fibroblasts": {"test_system": "NIH-3T3 fibroblasts", "assay": "In vitro cytotoxicity assay of mammalian NIH-3T3 fibroblasts (Alamar blue)", "assay_type": "cell-based", "conditions": "NIH-3T3 fibroblast growth inhibition, host cell toxicity; 4 days; N = 3", "description": "The in vitro cell culturing of mammalian NIH-3T3 fibroblasts following treatment with inhibitors to assess for cytotoxicity has previously been described. DMEM lacking phenol red and supplemented with 2% FBS and 1% PSG was warmed up. NIH-3T3 cells were trypsinized, as described in the cell culture protocol. When cells became detached, they were harvested in DMEM lacking phenol red and including 2% FBS and 1% PSG. The cells were centrifuged at 1000 rpm for 5 min, the medium was discarded, and the cells were resuspended in fresh DMEM lacking phenol red and including 2% FBS and 1% PSG. The cells were centrifuged at 1000 rpm for 5 min, resuspended in the medium, counted, and diluted to 500,000 cells/mL. Dilution was accomplished by transferring the stock number of cells into a sterile basin and 100 μL of cells was added to each well of a transparent, sterile, flat-bottom, 96-well microplate (50,000 cells/well) using a multichannel pipette. The plate was placed into the incubator for 3 h to allow cells to attach. The 3-nitro-2-phenyl-2H-chromene compounds were thawed from −80 °C to room temperature. The compounds were prepared as 10.0 mM stock solutions in 100% DMSO. A volume of 2.0 μL of a given compound plus a volume of 98.0 μL of fresh media were both added to a well in the first row of the 96-well microplate; this was performed for each compound to be tested. The solutions were mixed with a micropipette, followed by the transfer of 100 μL to the next row and repeated. The compound solutions ranged from 0.0139–30.3 μM and this was accomplished by serial dilution using a 3-fold dilution. After incubation for 4 days, 10.0 μL of Alamar blue was added to each well. Absorbance readings were measured using a Victor Nivo multimode microplate reader (PerkinElmer, Inc.; Shelton, CT, USA) at λ = 590 nm. All measurements were performed in triplicate and TC50 determinations for percent growth inhibition were carried out using GraphPad Prism 10.0. The final volume per well of cells and a given compound was 100 μL and this volume became 110 μL after the addition of Alamar blue. The detergent SDS was used as a positive control and its final solution concentration was 0.1%. Three controls were carried out, as follows: (a) NIH-3T3 cells alone, (b) perished NIH-3T3 cells (NIH-3T3 cells in the presence of 0.1% SDS), and (c) the medium alone."}, "[3]": {"biological_target": "T2, LmG6PDH (Leuconostoc mesenteroides glucose-6-phosphate dehydrogenase) (Leuconostoc mesenteroides, UniProt P11411)", "T2 construct": "purchased Worthington Biochemical Corporation", "T2 sequence (P11411 whole entry)": "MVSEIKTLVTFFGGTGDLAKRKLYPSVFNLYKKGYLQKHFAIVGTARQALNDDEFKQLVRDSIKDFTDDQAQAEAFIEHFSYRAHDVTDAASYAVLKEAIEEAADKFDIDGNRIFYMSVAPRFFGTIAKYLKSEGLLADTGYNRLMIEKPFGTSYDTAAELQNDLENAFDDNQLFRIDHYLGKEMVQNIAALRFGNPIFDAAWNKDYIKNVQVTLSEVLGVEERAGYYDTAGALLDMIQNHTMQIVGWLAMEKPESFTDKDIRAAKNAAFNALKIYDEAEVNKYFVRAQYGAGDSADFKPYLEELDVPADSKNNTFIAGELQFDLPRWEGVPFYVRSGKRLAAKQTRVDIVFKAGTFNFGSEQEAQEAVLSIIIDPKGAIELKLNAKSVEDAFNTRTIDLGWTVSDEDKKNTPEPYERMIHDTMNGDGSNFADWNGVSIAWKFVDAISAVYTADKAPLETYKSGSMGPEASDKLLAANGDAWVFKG", "assay": "Confirmatory assay on the LmG6PDH enzyme-coupled system", "assay_type": "biochemical", "conditions": "N = 4", "description": "Two criteria were examined in order to certify on-target confirmed hits: (a) the assessment of potential inhibition to the LmG6PDH enzyme-coupled system, and (b) the precision of the assay (per inhibitor), performed in quadruplicate (N = 4). Compounds were tested in quadruplicate in a black, round-bottom 96-well microplate in which wells were filled with a buffered solution (50 mM triethanolamine, 150 mM NaCl) amounting to a total volume of 206.5 μL that contained the following reagents at final assay concentrations: LmG6PDH (6.1 μg/mL), NADP^+ (0.54 mM), ATP (0.54 mM), MgCl2 (6.9 mM), DMSO (1.0% by vol.), D-glucose-6-phosphate (0.80 mM), and a 3-nitro-2-phenyl-2H-chromene analogue (20.0 μM). The analogue compounds were pre-incubated with the enzyme system a minimum of 10 min prior to the initiation of the assay. The enzymatic reactions were initiated and terminated similarly as described in the TcGlcK primary screen (vide supra). The production of NADPH was monitored using the VANTAstar-F multi-mode microplate reader set to fluorescent mode, λex = 340 nm and λem = 485 nm, over a 120-s timeframe."}}, "note": "Read-outs that look alike come from different tables or passages of the source."}
{"smiles": "O=C(N[C@H]1[C@@H](O)[C@H](O)C(CO)O[C@@H]1O)OCc1ccccc1", "note": "(some centres unmarked) [carboxybenzyl glucosamine]", "values": [{"measurement": "IC50", "setting": "T. cruzi; previous study, read-out: in vitro percent-growth-inhibition IC50 in T. cruzi culture", "value": 48700, "unit": "nM"}, {"measurement": "Ki", "setting": "TcGlcK", "value": 710, "unit": "nM"}]}
{"smiles": "O=C(Cn1ccnc1[N+](=O)[O-])NCc1ccccc1", "note": "[Benznidazole, benznidazole]", "values": [{"measurement": "IC50", "setting": "T. cruzi; benznidazole control, previous work, read-out: T. cruzi IC50", "value": "1120 ± 95", "unit": "nM"}]}
{"smiles": "O=[N+]([O-])C1=Cc2ccccc2OC1c1ccccc1Cl", "note": "(centres unmarked) [Compound 12, 2-(2-Chlorophenyl)-3-nitro-2H -chromene]", "values": [{"measurement": "Ki", "setting": "[1]", "value": 14000, "unit": "nM"}, {"measurement": "IC50", "setting": "[2]", "value": "1670 ± 60", "unit": "nM"}, {"measurement": "NIH-3T3 TC50", "setting": "NIH-3T3 fibroblasts", "value": "10900 ± 1550", "unit": "nM"}, {"measurement": "LmG6PDH inhibitory effect (in words)", "setting": "[3]; 20 µM compound", "value": "did not observe any significant LmG6PDH inhibitory effects"}, {"measurement": "inhibition at 20 µM", "setting": "[3]; percentage of inhibition at 20 µM compound in comparison to controls, read-out: LmG6PDH Inh20", "value": "8.6 ± 0.1", "unit": "%"}]}
